Results on 13 compounds are retold here after patent publication US20250250230A1, “HETEROCYCLIC COMPOUND” (TAKEDA PHARMACEUTICAL COMPANY LIMITED, priority 2022, published 2025).

The assay has as its target T1, human orexin type 2 receptor (Homo sapiens, UniProt O43614).
T1 construct: expressed in transfected cells
T1 sequence (O43614 1-444): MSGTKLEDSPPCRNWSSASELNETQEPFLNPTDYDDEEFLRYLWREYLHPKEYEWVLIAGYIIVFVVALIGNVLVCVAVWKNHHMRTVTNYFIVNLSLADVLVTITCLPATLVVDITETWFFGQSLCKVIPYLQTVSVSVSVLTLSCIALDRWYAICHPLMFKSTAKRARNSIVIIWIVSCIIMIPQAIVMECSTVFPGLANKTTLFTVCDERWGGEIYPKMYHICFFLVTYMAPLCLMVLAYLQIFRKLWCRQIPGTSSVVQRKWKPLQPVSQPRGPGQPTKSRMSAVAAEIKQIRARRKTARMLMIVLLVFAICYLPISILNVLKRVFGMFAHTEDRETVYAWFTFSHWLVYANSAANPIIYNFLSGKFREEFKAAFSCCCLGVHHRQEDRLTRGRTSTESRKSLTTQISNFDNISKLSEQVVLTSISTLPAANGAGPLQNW
Kind of assay: Measurement of orexin type 2 receptor agonist activity (calcium fluorescence, Fluo-4 AM, FDSS). The settings on record: test compound 3 μM; CHO cells expressing human OX2 receptor; DMSO = 0%, orexin A (human) = 100%. The class given is cell-based. An excerpt:
To obtain a cell clone stably expressing human orexin type 2 receptor, human orexin type 2 receptor cDNA was inserted into pcDNA3.1(+) plasmid vector (Invitrogen), and a plasmid DNA for expression of human orexin type 2 receptor (pcDNA3.1(+)/hOX2R) was cloned. The plasmid DNA was introduced into CHO-K1 cell by an electroporation method, and human orexin type 2 receptor expressing clone cells were obtained by limiting dilution method by using G418 drug resistance as a selection marker.
CHO cells forcibly expressing human OX2 receptor were seeded in each well of 384 well black transparent bottom plate (BD Falcon) at 10,000 cells/well, and cultured for one day in a 5% CO2 incubator at 37° C. After removal of the medium in the cell plate, assay buffer A containing a calcium indicator (HBSS (Thermo Fisher Scientific), 20 mM HEPES (Thermo Fisher Scientific), 0.1% BSA (Sigma-Aldrich), 2.5 μg/mL Fluo-4 AM (DOJINDO Chemical), 0.08% Pluronic F127 (DOJINDO Chemical), 1.25 mM probenecid (DOJINDO Chemical)) was added at 30 μL/well. The plate was stood for 30 min in a 5% CO2 incubator at 37° C., and further stood at room temperature for 30 min. A test compound prepared by diluting with assay buffer B (HBSS, 20 mM HEPES, 0.1% BSA) was added at 10 μL/well, and the fluorescence value was measured by FDSSμCELL (Hamamatsu Photonics K.K.) every one sec for 1 min, and thereafter every two sec for […]. The activity (%) of the test compound was calculated assuming that variation in the fluorescence value when DMSO was added instead of the test compound was 0%, and variation in the fluorescence value when orexin A (human) (PEPTIDE INSTITUTE, INC.) was added at the final concentration of 10 nM was 100%.
Turning to `CC1[C@@H](NS(C)(=O)=O)CCN1C(=O)[C@@H]1C[C@H]1c1ccccc1-c1c(F)cccc1F` (mixture of isomers) [Example 261, a mixture of N-{(2R,3R)-1-[(1R,2R)-2-(2′,6′-difluoro[1,1′-biphenyl]-2-yl)cyclopropane-1-carbonyl]-2-methylpyrrolidin-3-yl}methanesulfonamide and N-{(2S,3S)-1-[(1R,2R)-2-(2′,6′-difluoro[1,1′-biphenyl]-2-yl)cyclopropane-1-carbonyl]-2-methylpyrrolidin-3-yl}methanesulfonamide], the “OX2R agonist activity (3 μM, %)” value turned out to be 88%. For `C[C@]1(NS(C)(=O)=O)CCN(C(=O)[C@@H]2C[C@H]2c2ccccc2-c2c(F)cccc2F)C1` (mixture of isomers) [Example 286, a mixture of N-{(3R)-1-[(1R,2R)-2-(2′,6′-difluoro[1,1′-biphenyl]-2-yl)cyclopropane-1-carbonyl]-3-methylpyrrolidin-3-yl}methanesulfonamide and N-{(3S)-1-[(1R,2R)-2-(2′,6′-difluoro[1,1′-biphenyl]-2-yl)cyclopropane-1-carbonyl]-3-methylpyrrolidin-3-yl}methanesulfonamide], the “OX2R agonist activity (3 μM, %)” value is 96%. Then `CC1(C)C(C(=O)N2CC[C@H](NS(C)(=O)=O)C2)C1c1ccccc1-c1c(F)cccc1F` (mixture of isomers) [Example 287, a mixture of N-{(3S)-1-[(1R,2R)-2-(2′,6′-difluoro[1,1′-biphenyl]-2-yl)-2,2-dimethylcyclopropane-1-carbonyl]pyrrolidin-3-yl}methanesulfonamide and N-{(3S)-1-[(1S,3S)-3-(2′,6′-difluoro[1,1′-biphenyl]-2-yl)-2,2-dimethylcyclopropane-1-carbonyl]pyrrolidin-3-yl}methanesulfonamide], with 96%; and `CC1(C)C(C(=O)N2CCC[C@H](NS(C)(=O)=O)CC2)C1c1ccccc1-c1c(F)cccc1F` (mixture of isomers) [Example 288, a mixture of N-{(4S)-1-[(1R,2R)-2-(2′,6′-difluoro[1,1′-biphenyl]-2-yl)-2,2-dimethylcyclopropane-1-carbonyl]azepan-4-yl}methanesulfonamide and N-{(4S)-1-[(1S,3S)-3-(2′,6′-difluoro[1,1′-biphenyl]-2-yl)-2,2-dimethylcyclopropane-1-carbonyl]azepan-4-yl}methanesulfonamide], with 96%.

Turning to `CS(=O)(=O)N[C@H]1CCCN(C(=O)C2CC2(F)c2ccccc2-c2c(F)cccc2F)CC1` (mixture of isomers) [Example 290, a mixture of N-{(4S)-1-[(1R,2R)-2-(2′,6′-difluoro[1,1′-biphenyl]-2-yl)-2-fluorocyclopropane-1-carbonyl]azepan-4-yl}methanesulfonamide and N-{(4S)-1-[(1S,2S)-2-(2′,6′-difluoro[1,1′-biphenyl]-2-yl)-2-fluorocyclopropane-1-carbonyl]azepan-4-yl}methanesulfonamide], the “OX2R agonist activity (3 μM, %)” value was 98%. Regarding `CS(=O)(=O)N[C@H]1CCCCN(C(=O)C2CC2(F)c2ccccc2-c2c(F)cccc2F)C1` (mixture of isomers) [Example 291, a mixture of N-{(3S)-1-[(1R,2R)-2-(2′,6′-difluoro[1,1′-biphenyl]-2-yl)-2-fluorocyclopropane-1-carbonyl]azepan-3-yl}methanesulfonamide and N-{(3S)-1-[(1S,2S)-2-(2′,6′-difluoro[1,1′-biphenyl]-2-yl)-2-fluorocyclopropane-1-carbonyl]azepan-3-yl}methanesulfonamide], the “OX2R agonist activity (3 μM, %)” value turned out to be 93%. Regarding `CC1C(C(=O)N2CC[C@H](NS(C)(=O)=O)C2)C1c1ccccc1-c1c(F)cccc1F` (mixture of isomers) [Example 303, a mixture of N-{(3S)-1-[(1R,2R,3S)-2-(2′,6′-difluoro[1,1′-biphenyl]-2-yl)-3-methylcyclopropane-1-carbonyl]pyrrolidin-3-yl}methanesulfonamide and N-{(3S)-1-[(1S,2S,3R)-2-(2′,6′-difluoro[1,1′-biphenyl]-2-yl)-3-methylcyclopropane-1-carbonyl]pyrrolidin-3-yl}methanesulfonamide], the “OX2R agonist activity (3 μM, %)” value amounted to 99%. Regarding `CC1C(C(=O)N2CCC[C@H](NS(C)(=O)=O)C2)C1c1ccccc1-c1c(F)cccc1F` (mixture of isomers) [Example 305, a mixture of N-{(3S)-1-[(1R,2R,3S)-2-(2′,6′-difluoro[1,1′-biphenyl]-2-yl)-3-methylcyclopropane-1-carbonyl]piperidin-3-yl}methanesulfonamide and N-{(3S)-1-[(1S,2S,3R)-2-(2′,6′-difluoro[1,1′-biphenyl]-2-yl)-3-methylcyclopropane-1-carbonyl]piperidin-3-yl}methanesulfonamide], the “OX2R agonist activity (3 μM, %)” value was found to be 85%.

For `CC1C(C(=O)N2CCC[C@H](NS(C)(=O)=O)CC2)C1c1ccccc1-c1c(F)cccc1F` (mixture of isomers) [Example 308, a mixture of N-{(4S)-1-[(1R,2R,3S)-2-(2′,6′-difluoro[1,1′-biphenyl]-2-yl)-3-methylcyclopropane-1-carbonyl]azepan-4-yl}methanesulfonamide and N-{(4S)-1-[(1S,2S,3R)-2-(2′,6′-difluoro[1,1′-biphenyl]-2-yl)-3-methylcyclopropane-1-carbonyl]azepan-4-yl}methanesulfonamide], the “OX2R agonist activity (3 μM, %)” value turned out to be 100%. For `CC1(NS(C)(=O)=O)CCCN(C(=O)[C@@H]2C[C@H]2c2ccccc2-c2c(F)cccc2F)C1` (mixture of isomers) [Example 310, a mixture of N-{(3R)-1-[(1R,2R)-2-(2′,6′-difluoro[1,1′-biphenyl]-2-yl)cyclopropane-1-carbonyl]-3-methylpiperidin-3-yl}methanesulfonamide and N-{(3S)-1-[(1R,2R)-2-(2′,6′-difluoro[1,1′-biphenyl]-2-yl)cyclopropane-1-carbonyl]-3-methylpiperidin-3-yl}methanesulfonamide], the “OX2R agonist activity (3 μM, %)” value is 100%. On to `CC1C(C(=O)N2CCCC[C@H](NS(C)(=O)=O)C2)C1c1ccccc1-c1c(F)cccc1F` (mixture of isomers) [Example 311, a mixture of N-{(3S)-1-[(1R,2R,3S)-2-(2′,6′-difluoro[1,1′-biphenyl]-2-yl)-3-methylcyclopropane-1-carbonyl]azepan-3-yl}methanesulfonamide and N-{(3S)-1-[(1S,2S,3R)-2-(2′,6′-difluoro[1,1′-biphenyl]-2-yl)-3-methylcyclopropane-1-carbonyl]azepan-3-yl}methanesulfonamide], for which the “OX2R agonist activity (3 μM, %)” value came out at 98%. Then `CC1(NS(C)(=O)=O)CCCN(C(=O)[C@@H]2C[C@H]2c2ccccc2-c2c(F)cccc2F)CC1` (mixture of isomers) [Example 313, a mixture of N-{(4R)-1-[(1R,2R)-2-(2′,6′-difluoro[1,1′-biphenyl]-2-yl)cyclopropane-1-carbonyl]-4-methylazepan-4-yl}methanesulfonamide and N-{(4S)-1-[(1R,2R)-2-(2′,6′-difluoro[1,1′-biphenyl]-2-yl)cyclopropane-1-carbonyl]-4-methylazepan-4-yl}methanesulfonamide], with 97%. As for `CS(=O)(=O)N[C@H]1CCN(C(=O)C2C(c3ccccc3-c3c(F)cccc3F)C2(F)F)C1` (mixture of isomers) [Example 320, a mixture of N-{(3S)-1-[(1R,2R)-2-(2′,6′-difluoro[1,1′-biphenyl]-2-yl)-2,2-difluorocyclopropane-1-carbonyl]pyrrolidin-3-yl}methanesulfonamide and N-{(3S)-1-[(1S,3S)-3-(2′,6′-difluoro[1,1′-biphenyl]-2-yl)-2,2-difluorocyclopropane-1-carbonyl]pyrrolidin-3-yl}methanesulfonamide], the “OX2R agonist activity (3 μM, %)” value is on record as 101%.
